# Read-outs that look alike come from different tables or passages of the source.
# Key:
# [1] = HMF distribution between MIBK phase and aqueous phase with different salts and boric acid; assay type: physicochemical; settings: 30 wt % fructose, B(OH)3 0.3 g and salt 3 mmol (anion) in 3 mL, MIBK:aqueous 4:1, 150° C. 45 min
# Protocol: (§1) An aqueous solution containing 30 wt % fructose (3 mL, 5.7 mmol) was mounted in an Ace vial pressure tube (stable to ˜20 Bar) and solid B(OH)3 (0.3 g, 5 mmol) and solid salt (3 mmol with respect to the anion) were added to the solution. MIBK was added as extraction solvent so that an organic:aqueous volume ratio of 4:1 was obtained. The tube with the reaction mixture was placed in a preheated oil bath for a specified time under magnetic stirring (420 rpm) at a 150° C. for 45 min (reaction times were measured after a stable oil bath temperature had been reached). After the reaction, the tube was removed from the oil bath and cooled to room temperature before a sample was taken for analysis. A sample of the reaction mixture was collected and filtered through a syringe filter (0.45 μm PTFE), mixed with an internal standard (i-PrOH) and analyzed via HPLC.
# The R value indicated in table 9 is the HMF distribution obtained between the MIBK phase and the aqueous phase, i.e. [HMF]MIBK/[HMF]aq
# [2] = target: immobilized glucose isomerase (Sweetzyme™) (Streptomyces murinus, UniProt P37031); settings: for glucose isomerase performance at high salt concentration: as shown in example 12; for stability of Sweetzyme™ in the presence of the salt: conclusion of example 12
# Sequence of immobilized glucose isomerase (Sweetzyme™) (P37031 whole entry): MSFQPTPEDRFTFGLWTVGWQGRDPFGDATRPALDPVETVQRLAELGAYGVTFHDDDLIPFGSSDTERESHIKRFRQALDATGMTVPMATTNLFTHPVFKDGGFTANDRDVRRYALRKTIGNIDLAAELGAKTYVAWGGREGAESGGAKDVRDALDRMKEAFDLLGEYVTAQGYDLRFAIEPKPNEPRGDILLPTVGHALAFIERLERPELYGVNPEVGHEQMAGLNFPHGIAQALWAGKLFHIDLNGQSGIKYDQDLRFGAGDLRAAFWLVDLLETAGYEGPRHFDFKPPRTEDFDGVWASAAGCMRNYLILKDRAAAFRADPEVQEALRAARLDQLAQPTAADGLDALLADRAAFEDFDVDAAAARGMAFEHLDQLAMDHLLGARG
# Protocol: 3 gram immobilized glucose isomerase (Sweetzyme™) was loaded in a lab-scale column heated to 60° C. and a substrate flow of 50 gram/hour was applied. […] Samples were collected on a regular basis for HPLC analysis and the enzyme activity was calculated according to the following equation (Jorgensen, O. B., et al., Starch-Starke, 1988. 40(8), 307-313):
# [formula] where: A: specific activity of immobilized enzyme (micromol/min/g enzyme) (IGIU/g: Immobilized Glucose Isomerase Units/g) 0.926: unit conversion factor Fw: Flow rate of syrup (g/h) w: Weight of enzyme (g) DP1: Inlet % of (glucose+fructose) in dry substance (100 at analytical conditions) DS: Dry substance content (%) X: Conversion=outlet % fructose/DP1 Xi: inlet % fructose/DP1 Xe: X at equilibrium (0.51 at 60° C.) DP1, Xi and Xe were assumed constant with following values: DP1: 99.7 Xi: 0 Xe: 0.5078
# [3] = HMF distribution between organic extraction solvent and aqueous phase; assay type: physicochemical; settings: B(OH)3 and NaCl, organic:aqueous 4:1, 150° C.
# Protocol: as §1, with “NaCl (0.15 g, 3 mmol)” for “solid salt (3 mmol with respect to the anion)”, “Different organic” for “MIBK was added as”, “were added resulting in a” for “so that an”, “4:1.” for “4:1 was obtained.”, “C.” for “C. for 45 min”
# The R value indicated in table 10 is the HMF distribution obtained between the MIBK phase and the aqueous phase, i.e. [HMF]MIBK/[HMF]aq.
# [4] = 30 wt % fructose, time not given
smiles,measurement,setting,value
"[Cl-].[K+] [KCl, potassium chloride]",R value (MIBK:aq),[1],1.0
same,Activity,"[2]; Column 4: 63.78 g/l KCl, time 18.17 h",398.12 IGIU/g
same,Activity,"[2]; Column 4: 63.78 g/l KCl, time 46.17 h",410.62 IGIU/g
same,Activity,"[2]; Column 4: 63.78 g/l KCl, time 66.67 h",411.97 IGIU/g
same,Activity,"[2]; Column 4: 63.78 g/l KCl, time 138.67 h",415.42 IGIU/g
same,Activity,"[2]; Column 4: 63.78 g/l KCl, time 163.50 h",429.63 IGIU/g
same,Activity,"[2]; Column 4: 63.78 g/l KCl, time 211.50 h",448.90 IGIU/g
same,Activity,"[2]; Column 4: 63.78 g/l KCl, time 233.83 h",469.08 IGIU/g
same,Activity,"[2]; Column 4: 63.78 g/l KCl, time 309.25 h",468.47 IGIU/g
same,Activity,"[2]; Column 4: 63.78 g/l KCl, time 331.42 h",469.21 IGIU/g
same,Activity,"[2]; Column 4: 63.78 g/l KCl, time 378.83 h",443.80 IGIU/g
same,Activity,"[2]; Column 4: 63.78 g/l KCl, time 474.42 h",430.17 IGIU/g
same,Activity,"[2]; Column 4: 63.78 g/l KCl, time 498.33 h",428.76 IGIU/g
same,Activity,"[2]; Column 4: 63.78 g/l KCl, time 522.25 h",418.17 IGIU/g
same,Activity,"[2]; Column 4: 63.78 g/l KCl, time 547.33 h",437.40 IGIU/g
same,Activity,"[2]; Column 4: 63.78 g/l KCl, time 569.17 h",438.97 IGIU/g
same,Activity,"[2]; Column 4: 63.78 g/l KCl, time 641.92 h",455.49 IGIU/g
same,Activity,"[2]; Column 4: 63.78 g/l KCl, time 669.67 h",426.01 IGIU/g
same,glucose isomerase performance at high salt concentration,[2],comparable with a normal glucose substrate
same,stability of Sweetzyme™ in the presence of the salt,[2],good stability
"O=S(=O)([O-])[O-].[Mg+2] [MgSO4, Magnesium sulfate]",Activity,"[2]; Column 6: 102.98 g/l MgSO4, time 17.50 h",412.41 IGIU/g
same,Activity,"[2]; Column 6: 102.98 g/l MgSO4, time 45.50 h",420.62 IGIU/g
same,Activity,"[2]; Column 6: 102.98 g/l MgSO4, time 66.00 h",419.46 IGIU/g
same,Activity,"[2]; Column 6: 102.98 g/l MgSO4, time 138.00 h",428.95 IGIU/g
same,Activity,"[2]; Column 6: 102.98 g/l MgSO4, time 162.83 h",436.79 IGIU/g
same,Activity,"[2]; Column 6: 102.98 g/l MgSO4, time 186.83 h",452.92 IGIU/g
same,Activity,"[2]; Column 6: 102.98 g/l MgSO4, time 210.83 h",465.04 IGIU/g
same,Activity,"[2]; Column 6: 102.98 g/l MgSO4, time 233.17 h",424.51 IGIU/g
same,Activity,"[2]; Column 6: 102.98 g/l MgSO4, time 308.58 h",370.47 IGIU/g
same,Activity,"[2]; Column 6: 102.98 g/l MgSO4, time 330.75 h",366.35 IGIU/g
same,Activity,"[2]; Column 6: 102.98 g/l MgSO4, time 378.17 h",324.95 IGIU/g
same,Activity,"[2]; Column 6: 102.98 g/l MgSO4, time 473.75 h",306.53 IGIU/g
same,Activity,"[2]; Column 6: 102.98 g/l MgSO4, time 497.67 h",298.41 IGIU/g
same,Activity,"[2]; Column 6: 102.98 g/l MgSO4, time 521.58 h",299.60 IGIU/g
same,Activity,"[2]; Column 6: 102.98 g/l MgSO4, time 568.50 h",310.87 IGIU/g
"O=S(=O)([O-])[O-].[Na+].[Na+] [Na2SO4, sodium sulphate]",R value (MIBK:aq),[1],1.7
same,Activity,"[2]; Column 5: 61.08 g/l Na2SO4, time 17.83 h",418.97 IGIU/g
same,Activity,"[2]; Column 5: 61.08 g/l Na2SO4, time 45.83 h",433.23 IGIU/g
same,Activity,"[2]; Column 5: 61.08 g/l Na2SO4, time 66.33 h",432.90 IGIU/g
same,Activity,"[2]; Column 5: 61.08 g/l Na2SO4, time 138.33 h",427.76 IGIU/g
same,Activity,"[2]; Column 5: 61.08 g/l Na2SO4, time 163.17 h",439.97 IGIU/g
same,Activity,"[2]; Column 5: 61.08 g/l Na2SO4, time 187.17 h",449.17 IGIU/g
same,Activity,"[2]; Column 5: 61.08 g/l Na2SO4, time 211.17 h",437.81 IGIU/g
same,Activity,"[2]; Column 5: 61.08 g/l Na2SO4, time 233.50 h",449.65 IGIU/g
same,Activity,"[2]; Column 5: 61.08 g/l Na2SO4, time 308.92 h",437.45 IGIU/g
same,Activity,"[2]; Column 5: 61.08 g/l Na2SO4, time 331.08 h",437.38 IGIU/g
same,Activity,"[2]; Column 5: 61.08 g/l Na2SO4, time 378.50 h",429.47 IGIU/g
same,Activity,"[2]; Column 5: 61.08 g/l Na2SO4, time 474.08 h",381.79 IGIU/g
same,Activity,"[2]; Column 5: 61.08 g/l Na2SO4, time 498.00 h",387.83 IGIU/g
same,Activity,"[2]; Column 5: 61.08 g/l Na2SO4, time 521.92 h",382.13 IGIU/g
same,Activity,"[2]; Column 5: 61.08 g/l Na2SO4, time 547.00 h",394.91 IGIU/g
same,Activity,"[2]; Column 5: 61.08 g/l Na2SO4, time 568.83 h",393.80 IGIU/g
same,Activity,"[2]; Column 5: 61.08 g/l Na2SO4, time 641.58 h",376.25 IGIU/g
same,Activity,"[2]; Column 5: 61.08 g/l Na2SO4, time 669.33 h",370.35 IGIU/g
same,glucose isomerase performance at high salt concentration,[2],comparable with a normal glucose substrate
same,stability of Sweetzyme™ in the presence of the salt,[2],good stability
"[Br-].[K+] [KBr, potassium bromide]",R value (MIBK:aq),[1],0.9
"O=S(=O)([O-])[O-].[K+].[K+] [K2SO4, potassium sulphate]",R value (MIBK:aq),[1],1.5
"[Cl-].[Na+] [NaCl, sodium chloride]",R value (MIBK:aq),[1],1.0
same,Activity,"[2]; 50 g/l NaCl, time 19.25 h",431.74 IGIU/g
same,Activity,"[2]; 50 g/l NaCl, time 47.25 h",438.80 IGIU/g
same,Activity,"[2]; 50 g/l NaCl, time 67.75 h",438.50 IGIU/g
same,Activity,"[2]; 50 g/l NaCl, time 139.75 h",425.49 IGIU/g
same,Activity,"[2]; 50 g/l NaCl, time 164.58 h",471.33 IGIU/g
same,Activity,"[2]; 50 g/l NaCl, time 188.58 h",469.46 IGIU/g
same,Activity,"[2]; 50 g/l NaCl, time 212.58 h",451.52 IGIU/g
same,Activity,"[2]; 50 g/l NaCl, time 234.92 h",468.84 IGIU/g
same,Activity,"[2]; 50 g/l NaCl, time 310.33 h",466.38 IGIU/g
same,Activity,"[2]; 50 g/l NaCl, time 332.50 h",468.14 IGIU/g
same,Activity,"[2]; 50 g/l NaCl, time 379.92 h",449.12 IGIU/g
same,Activity,"[2]; 50 g/l NaCl, time 475.50 h",446.72 IGIU/g
same,Activity,"[2]; 50 g/l NaCl, time 499.42 h",445.83 IGIU/g
same,Activity,"[2]; 50 g/l NaCl, time 523.33 h",439.69 IGIU/g
same,Activity,"[2]; 50 g/l NaCl, time 548.42 h",436.34 IGIU/g
same,Activity,"[2]; 50 g/l NaCl, time 570.25 h",436.11 IGIU/g
same,Activity,"[2]; 50 g/l NaCl, time 643.00 h",446.01 IGIU/g
same,Activity,"[2]; 50 g/l NaCl, time 670.75 h",435.86 IGIU/g
same,glucose isomerase performance at high salt concentration,[2],further stabilised
same,stability of Sweetzyme™ in the presence of the salt,[2],good stability
"O=[N+]([O-])[O-].[Li+] [LiNO3, lithium nitrate]",R value (MIBK:aq),[1],0.9
"[I-].[K+] [KI, potassium iodine]",R value (MIBK:aq),[1],0.7
"[Br-].[Li+] [LiBr, lithium bromide]",R value (MIBK:aq),[1],1.0
"CC(=O)CC(C)C [MIBK, methyl-isobutylketone]",R-value,[3]; [4],1.0
"[Br-].[Na+] [NaBr, sodium bromide]",R value (MIBK:aq),[1],0.9
"[Cl][Al]([Cl])[Cl] [AlCl3, aluminum chloride]",R value (MIBK:aq),[1],1.1
"[Cl-].[Li+] [LiCl, lithium chloride]",R value (MIBK:aq),[1],1.1
"O=[N+]([O-])[O-].[K+] [KNO3, potassium nitrate]",R value (MIBK:aq),[1],0.8
"O=[N+]([O-])[O-].[Na+] [NaNO3, sodium nitrate]",R value (MIBK:aq),[1],0.9
[Cl-].[Cl-].[Mg+2] [MgCl],R value (MIBK:aq),[1],1.1
"C1CCOC1 [THF, tetrahydrofuran]",R-value,[3]; [4],3.2
same,R-value,[3]; 60 min,3.7
same,R-value,[3]; 75 min,3.6
[Cl][Fe]([Cl])[Cl] [FeCl3],R value (MIBK:aq),[1],1.1
"CCC(C)O (stereo not shown) [2-BuOH, 2-butanol]",R-value,[3]; [4],2.3
